Measurements from ChEMBL document CHEMBL4715897, “A new 1-nitro-9-aminoacridine derivative targeting yeast topoisomerase II able to overcome fluconazole-resistance” (2021).
In brackets after ≈: the same amount, converted by molar mass. Activity calls are given as the source filed them. The rule behind the calls is not given here.

Tests used:
Candida = assay: Antifungal activity against Candida; format: functional
Candida albicans [1] = assay: Antifungal activity against Candida albicans ATCC 10231 assessed as reduction in microbial growth; format: functional
Nakaseomyces glabratus [2] = assay: Antifungal activity against Candida glabrata ATCC 90030 assessed as reduction in microbial growth; format: functional
Pichia kudriavzevii [3] = assay: Antifungal activity against Candida krusei ATCC 6258 assessed as reduction in microbial growth; format: functional
Candida parapsilosis [4] = assay: Antifungal activity against Candida parapsilosis ATCC 22019 assessed as reduction in microbial growth; format: functional; conditions: Lodderomyces parapsilosis
Saccharomyces cerevisiae [5] = assay: Antifungal activity against Saccharomyces cerevisiae ATCC 9763 assessed as reduction in microbial growth; format: functional
Saccharomyces cerevisiae [6] = assay: Inhibition of Saccharomyces cerevisiae DNA topoisomerase 2 assessed as decrease in relaxation of supercoiled DNA using supercoiled pBR322 plasmid DNA at 100 to 150 uM gel electrophoresis method; conditions: dose 100-150 µM
Saccharomyces cerevisiae [7] = assay: Fungicidal activity against Saccharomyces cerevisiae ATCC 9763; format: functional
[8] = Ratio of MFC for fungicidal activity against Saccharomyces cerevisiae ATCC 9763 to MIC for antifungal activity against Saccharomyces cerevisiae ATCC 9763; format: functional
Candida albicans [9] = assay: Antifungal activity against fluconazole-sensitive Candida albicans B3 assessed as reduction in microbial growth; format: functional
Candida albicans [10] = assay: Antifungal activity against fluconazole-resistant Candida albicans B4 assessed as reduction in microbial growth; format: functional
Candida albicans [11] = assay: Antifungal activity against fluconazole-sensitive Candida albicans Gu4 assessed as reduction in microbial growth; format: functional
Candida albicans [12] = assay: Antifungal activity against fluconazole-resistant Candida albicans Gu5 assessed as reduction in microbial growth; format: functional
Candida albicans [13] = assay: Antifungal activity against fluconazole-sensitive Candida albicans F2 assessed as reduction in microbial growth; format: functional
Candida albicans [14] = assay: Antifungal activity against fluconazole-resistant Candida albicans F5 assessed as reduction in microbial growth; format: functional
Escherichia coli = assay: Antibacterial activity against Escherichia coli ATCC 10536 assessed as reduction in microbial growth incubated for 48 hrs by photometric method; format: functional
Staphylococcus aureus = assay: Antibacterial activity against Staphylococcus aureus ATCC 9144 assessed as reduction in microbial growth incubated for 48 hrs by photometric method; format: functional
Candida albicans [15] = assay: Antifungal activity against Candida albicans CNCM 1180-79 assessed as reduction in microbial growth incubated for 72 hrs by photometric method; format: functional
Candida albicans [16] = assay: Fungicidal activity against Candida albicans ATCC 10231; format: functional
Nakaseomyces glabratus [17] = assay: Fungicidal activity against Candida glabrata DSM 11226; format: functional
Pichia kudriavzevii [18] = assay: Fungicidal activity against Candida krusei DSM 6128; format: functional
Candida parapsilosis [19] = assay: Fungicidal activity against Candida parapsilosis DSM 5784; format: functional; conditions: Lodderomyces parapsilosis
Candida albicans [20] = assay: Growth inhibition of Candida albicans ATCC 10231 assessed as reduction in yeast to mycelium formation by measuring reduction in hyphal growth at 0.25 MIC after 3 hrs by light microscopic method relative to control; format: functional
Candida albicans [21] = assay: Growth inhibition of Candida albicans ATCC 10231 assessed as reduction in yeast to mycelium formation by measuring reduction in hyphal growth at concentration of 0.25 MIC after 3 hrs in G1cNAc medium by light microscopic method relative to control; format: functional, organism-based
Candida albicans [22] = assay: Growth inhibition of Candida albicans ATCC 10231 assessed as reduction in yeast to mycelium formation by measuring reduction in hyphal growth at concentration of 0.25 MIC after 3 hrs in YPG medium by light microscopic method relative to control; format: functional, organism-based
Candida albicans [23] = assay: Antibiofilm activity against Candida albicans ATCC 10231 at concentration of 0.25 MIC by XTT assay; format: functional, organism-based
Saccharomyces cerevisiae [24] = assay: Inhibition of Saccharomyces cerevisiae DNA topoisomerase 2 assessed as decrease in relaxation of supercoiled DNA using supercoiled pBR322 plasmid DNA at 1 to 200 uM gel electrophoresis method; conditions: dose 1-200 µM
Candida albicans [25] = assay: Fungicidal activity against Candida albicans ATCC 10231 assessed as bacterial killing after 5 hrs; format: functional, organism-based
Candida albicans [26] = assay: Fungicidal activity against Candida albicans ATCC 10231 assessed as bacterial killing at concentration of 4 MIC after 5 hrs relative to control; format: functional
Candida albicans [27] = assay: Fungicidal activity against Candida albicans ATCC 10231 assessed as bacterial killing at concentration of 2 MIC after 5 hrs relative to control; format: functional
Candida albicans [28] = assay: Fungicidal activity against Candida albicans ATCC 10231 assessed as bacterial killing at concentration of MIC after 5 hrs relative to control; format: functional
Candida albicans [29] = assay: Fungicidal activity against Candida albicans ATCC 10231 assessed as bacterial killing at concentration of 0.5 MIC after 5 hrs relative to control; format: functional
Candida albicans [30] = assay: Fungicidal activity against Candida albicans ATCC 10231 assessed as bacterial killing at concentration of 0.25 MIC after 5 hrs relative to control; format: functional
Candida albicans [31] = assay: Fungicidal activity against Candida albicans ATCC 10231 assessed as bacterial killing at concentration of 0.25 to 4 MIC after 1 hrs relative to control; format: functional

Row | Compound | MIC90 (Candida albicans [1]) [µg/mL] | MIC90 (Nakaseomyces glabratus [2]) [µg/mL] | MIC90 (Pichia kudriavzevii [3]) [µg/mL] | MIC90 (Candida parapsilosis [4]) [µg/mL] | MIC90 (Saccharomyces cerevisiae [5]) [µg/mL] | MFC (Saccharomyces cerevisiae [7]) [µg/mL] | Ratio [8] | MIC90 (Candida albicans [9]) [µg/mL] | MIC90 (Candida albicans [10]) [µg/mL] | MIC90 (Candida albicans [11]) [µg/mL] | MIC90 (Candida albicans [12]) [µg/mL] | MIC90 (Candida albicans [13]) [µg/mL] | MIC90 (Candida albicans [14]) [µg/mL] | MFC (Nakaseomyces glabratus [17]) [µg/mL] | Activity (Candida albicans [23]) | inhibition (Saccharomyces cerevisiae [24]) | other results
1 | COc1cc([C@@H]2c3cc4c(cc3[C@@H](O[C@@H]3O[C@@H]5CO[C@@H](C)O[C@H]5[C@H](O)[C@H]3O)[C@H]3COC(=O)[C@H]23)OCO4)cc(OC)c1O [ETOPOSIDE] |  |  |  |  |  |  |  |  |  |  |  |  |  |  |  |  | MIC (Candida): 50 µg/mL (≈ 85 µM)
2 | Nc1cccc2nc3ccccc3c(NCCO)c12 | > 64 | > 64 | > 64 | > 64 | > 64 |  |  |  |  |  |  |  |  |  |  |  | 
3 | COc1cc(NS(C)(=O)=O)ccc1Nc1c2ccccc2nc2ccccc12 |  |  |  |  |  |  |  |  |  |  |  |  |  |  |  |  | inhibition (Saccharomyces cerevisiae [6]): Active
4 | CN(CCCNc1c2ccccc2nc2cccc([N+](=O)[O-])c12)CCCNc1c2ccccc2nc2cccc([N+](=O)[O-])c12 | > 16 | > 16 | > 16 | > 16 | 4 | 4 (≈ 6.78 µM) | >=1 |  |  |  |  |  |  |  |  |  | 
5 | OC(Cn1cncn1)(Cn1cncn1)c1ccc(F)cc1F [FLUCONAZOLE] | 8 |  |  |  |  |  |  | 1 | 16 | 4 | > 64 | 8 | > 64 |  |  |  | 
6 | Cc1ccc(N)c2c(NCCO)c3ccccc3nc12 | > 64 | 64 | 64 | 64 | 64 |  |  |  |  |  |  |  |  |  |  |  | 
7 | Cc1ccc([N+](=O)[O-])c2c(NCCOC(=O)CCCCC(=O)OCCNc3c4ccccc4nc4c(C)ccc([N+](=O)[O-])c34)c3ccccc3nc12 | > 32 | > 32 | > 32 | > 32 | > 32 |  |  |  |  |  |  |  |  |  |  |  | 
8 | O=[N+]([O-])c1cccc2nc3ccccc3c(NCCO)c12 | 2 | 16 | 8 | 32 | 0.25 | 0.25 (≈ 0.882 µM) | >=1 | 2 | > 64 | 4 | 32 | 4 | > 64 | 32 (≈ 113 µM) | Active | inactive | MIC (Escherichia coli): 50 µg/mL; MIC (Staphylococcus aureus): 50 µg/mL; MIC (Candida albicans [15]): 50 µg/mL; MFC (Candida albicans [16]): 4 µg/mL (≈ 14.1 µM); MFC (Pichia kudriavzevii [18]): 32 µg/mL (≈ 113 µM); MFC (Candida parapsilosis [19]): 64 µg/mL (≈ 226 µM); growth inhibition (GI) (Candida albicans [20]): inactive; growth inhibition (GI) (Candida albicans [21]): inactive; growth inhibition (GI) (Candida albicans [22]): inactive
9 | O=C(CCCCC(=O)OCCNc1c2ccccc2nc2cccc([N+](=O)[O-])c12)OCCNc1c2ccccc2nc2cccc([N+](=O)[O-])c12 | > 16 | > 16 | > 16 | > 16 | > 16 |  |  |  |  |  |  |  |  |  |  |  | 
10 | NCCCC[C@H](N)C(=O)OCCNc1c2ccccc2nc2cccc([N+](=O)[O-])c12 | 4 | 16 | 16 | 32 | 0.5 | 1 (≈ 2.43 µM) | >=1 | 4 | > 64 | 4 | > 64 | 4 | > 64 | 64 (≈ 156 µM) | Active | inactive | MFC (Candida albicans [16]): 16 µg/mL (≈ 38.9 µM); MFC (Pichia kudriavzevii [18]): 64 µg/mL (≈ 156 µM); MFC (Candida parapsilosis [19]): 128 µg/mL (≈ 311 µM)
11 | Cc1ccc([N+](=O)[O-])c2c(NCCCNC(=O)[C@@H](N)CCCCN)c3ccccc3nc12 | 32 | > 64 | 64 | > 64 | 32 | 32 (≈ 73 µM) | >=1 | > 64 | > 64 | > 64 | > 64 | > 64 | > 64 |  |  | Active | growth inhibition (GI) (Candida albicans [20]): 100%; growth inhibition (GI) (Candida albicans [21]): inactive
12 | Cc1ccc([N+](=O)[O-])c2c(NCCNCCNCCNc3c4ccccc4nc4c(C)ccc([N+](=O)[O-])c34)c3ccccc3nc12 | > 32 | > 32 | > 32 | > 32 | 32 |  |  |  |  |  |  |  |  |  |  |  | 
13 | NCCCC[C@H](N)C(=O)NCCCNc1c2ccccc2nc2cccc([N+](=O)[O-])c12 | 8 | 32 | 64 | 32 | 16 | 16 (≈ 37.7 µM) | >=1 | 16 | 16 | 32 | 32 | 64 | 64 | > 128 | Active | Active | MFC (Candida albicans [16]): 16 µg/mL (≈ 37.7 µM); MFC (Candida parapsilosis [19]): > 128 µg/mL; growth inhibition (GI) (Candida albicans [20]): Active; growth inhibition (GI) (Candida albicans [21]): Active; growth inhibition (GI) (Candida albicans [22]): Active; inhibition (Saccharomyces cerevisiae [6]): Active
14 | Cc1ccc([N+](=O)[O-])c2c(NCCO)c3ccccc3nc12 | 1 | 8 | 8 | 64 | 0.5 | 0.5 (≈ 1.68 µM) | >=1 | 4 | > 64 | 4 | 32 | 2 | > 64 | > 64 | Active | inactive | MIC (Escherichia coli): 50 µg/mL; MIC (Staphylococcus aureus): 50 µg/mL; MIC (Candida albicans [15]): 50 µg/mL; MFC (Candida albicans [16]): 2 µg/mL (≈ 6.73 µM); MFC (Pichia kudriavzevii [18]): 16 µg/mL (≈ 53.8 µM); Activity (Candida albicans [25]): Dose-dependent effect; Activity (Candida albicans [26]): 80%; Activity (Candida albicans [27]): 70%; Activity (Candida albicans [28]): 60%; Activity (Candida albicans [29]): 5%; Activity (Candida albicans [30]): 5%; Activity (Candida albicans [31]): 10%; growth inhibition (GI) (Candida albicans [20]): inactive; growth inhibition (GI) (Candida albicans [21]): inactive; growth inhibition (GI) (Candida albicans [22]): inactive
15 | O=[N+]([O-])c1cccc2nc3ccccc3c(NCCNCCNCCNc3c4ccccc4nc4cccc([N+](=O)[O-])c34)c12 | 64 | 32 | 32 | 32 | 8 | 16 (≈ 27.1 µM) | >=1 | > 64 | > 64 | > 64 | > 64 | > 64 | > 64 | 32 (≈ 54.2 µM) | Active |  | MFC (Pichia kudriavzevii [18]): 32 µg/mL (≈ 54.2 µM); growth inhibition (GI) (Candida albicans [20]): 100%; growth inhibition (GI) (Candida albicans [21]): inactive; growth inhibition (GI) (Candida albicans [22]): Active; inhibition (Saccharomyces cerevisiae [6]): Active
16 | Cc1ccc([N+](=O)[O-])c2c(NCCCN(C)CCCNc3c4ccccc4nc4c(C)ccc([N+](=O)[O-])c34)c3ccccc3nc12 | > 16 | > 16 | > 16 | > 16 | 8 | 8 (≈ 13 µM) | >=1 |  |  |  |  |  |  |  |  |  | 
17 | Cc1ccc([N+](=O)[O-])c2c(NCCOC(=O)[C@@H](N)CCCCN)c3ccccc3nc12 | 4 | 32 | 16 | 64 | 1 | 2 (≈ 4.7 µM) | >=1 | 16 | > 64 | 8 | > 64 | 8 | > 64 | 64 (≈ 150 µM) | inactive | inactive | MFC (Candida albicans [16]): 16 µg/mL (≈ 37.6 µM); MFC (Pichia kudriavzevii [18]): 32 µg/mL (≈ 75.2 µM)
